Assays:
[1] = species: Mus musculus; test: Increase in aryl hydrocarbon hydroxylase activity in mouse; format: functional
[2] = species: Mus musculus; test: Increase in hepatic ethylmorphine N-demethylase activity in mouse; format: functional

CO[C@H]1/C=C/O[C@@]2(C)Oc3c(C)c(O)c4c(O)c(c(/C=N/N5CCN(C)CC5)c(O)c4c3C2=O)NC(=O)/C(C)=C\C=C\[C@H](C)[C@H](O)[C@@H](C)[C@@H](O)[C@@H](C)[C@H](OC(C)=O)[C@@H]1C [RIFAMPIN]
Activity [1]: 174%
Activity [2]: 85%
